Reference: publication PMC4832243, “Discovery of Potent VEGFR-2 Inhibitors based on Furopyrimidine and Thienopyrimidne Scaffolds as Cancer Targeting Agents” (Scientific Reports, 2016)

Legend:
HCT-15 = experiment: NCI 60 cell line panel (SRB), HCT-15; assay type: cell-based; details: Homo sapiens; HCT-15, Colon Cancer; single dose of 10 μM; read-out: Cell Growth Percent
RXF 393 = experiment: NCI 60 cell line panel (SRB), RXF 393; assay type: cell-based; details: Homo sapiens; RXF 393, Renal Cancer; single dose of 10 μM; read-out: Cell Growth Percent
MOLT-4 = experiment: NCI 60 cell line panel (SRB), MOLT-4; assay type: cell-based; details: Homo sapiens; MOLT-4, Leukemia; single dose of 10 μM; read-out: Cell Growth Percent
SNB-75 = experiment: NCI 60 cell line panel (SRB), SNB-75; assay type: cell-based; details: Homo sapiens; SNB-75, CNS Cancer; single dose of 10 μM; read-out: Cell Growth Percent
NCI-H23 = experiment: NCI 60 cell line panel (SRB), NCI-H23; assay type: cell-based; details: Homo sapiens; NCI-H23, Non-Small Cell Lung Cancer; single dose of 10 μM; read-out: Cell Growth Percent
M14 = experiment: NCI 60 cell line panel (SRB), M14; assay type: cell-based; details: Homo sapiens; M14, Melanoma; single dose of 10 μM; read-out: Cell Growth Percent
MDA-MB-231/ATCC = experiment: NCI 60 cell line panel (SRB), MDA-MB-231/ATCC; assay type: cell-based; details: Homo sapiens, Breast Cancer, single dose of 10 μM, read-out: Cell Growth Percent
BT-549 = experiment: NCI 60 cell line panel (SRB), BT-549; assay type: cell-based; details: Homo sapiens; BT-549, Breast Cancer; single dose of 10 μM; read-out: Cell Growth Percent
UO-31 = experiment: NCI 60 cell line panel (SRB), UO-31; assay type: cell-based; details: Homo sapiens; UO-31, Renal Cancer; single dose of 10 μM; read-out: Cell Growth Percent
IGROV1 = experiment: NCI 60 cell line panel (SRB), IGROV1; assay type: cell-based; details: Homo sapiens, IGROV-1; IGROV1, Ovarian Cancer; single dose of 10 μM; read-out: Cell Growth Percent
CCRF-CEM = experiment: NCI 60 cell line panel (SRB), CCRF-CEM; assay type: cell-based; details: Homo sapiens, Leukemia, single dose of 10 μM, read-out: Cell Growth Percent
SF-539 = experiment: NCI 60 cell line panel (SRB), SF-539; assay type: cell-based; details: Homo sapiens; SF-539, CNS Cancer; single dose of 10 μM; read-out: Cell Growth Percent
SW-620 = experiment: NCI 60 cell line panel (SRB), SW-620; assay type: cell-based; details: Homo sapiens; SW-620, Colon Cancer; single dose of 10 μM; read-out: Cell Growth Percent
HCC-2998 = experiment: NCI 60 cell line panel (SRB), HCC-2998; assay type: cell-based; details: Homo sapiens; HCC-2998, Colon Cancer; single dose of 10 μM; read-out: Cell Growth Percent
LOX IMVI = experiment: NCI 60 cell line panel (SRB), LOX IMVI; assay type: cell-based; details: Homo sapiens, Melanoma, single dose of 10 μM, read-out: Cell Growth Percent
OVCAR-3 = experiment: NCI 60 cell line panel (SRB), OVCAR-3; assay type: cell-based; details: Homo sapiens; OVCAR-3, Ovarian Cancer; single dose of 10 μM; read-out: Cell Growth Percent
KM12 = experiment: NCI 60 cell line panel (SRB), KM12; assay type: cell-based; details: Homo sapiens; KM12, Colon Cancer; single dose of 10 μM; read-out: Cell Growth Percent
MALME-3M = experiment: NCI 60 cell line panel (SRB), MALME-3M; assay type: cell-based; details: Homo sapiens, Melanoma, single dose of 10 μM, read-out: Cell Growth Percent
A549/ATCC = experiment: NCI 60 cell line panel (SRB), A549/ATCC; assay type: cell-based; details: Homo sapiens, Non-Small Cell Lung Cancer, single dose of 10 μM, read-out: Cell Growth Percent
[1] = test system: HUVEC umbilical vein endothelial cells; experiment: In vitro HUVEC anti-proliferative assay (alamarBlue); assay type: cell-based; details: Homo sapiens, HUVEC proliferation at 10 μM, 72 hours; for activity at 10 µM: read-out: % Cell growth; for inhibition at 10 µM: read-out: % Cell inhibition
SK-MEL-28 = experiment: NCI 60 cell line panel (SRB), SK-MEL-28; assay type: cell-based; details: Homo sapiens; SK-MEL-28, Melanoma; single dose of 10 μM; read-out: Cell Growth Percent
TK-10 = experiment: NCI 60 cell line panel (SRB), TK-10; assay type: cell-based; details: Homo sapiens; TK-10, Renal Cancer; single dose of 10 μM; read-out: Cell Growth Percent
SK-OV-3 = experiment: NCI 60 cell line panel (SRB), SK-OV-3; assay type: cell-based; details: Homo sapiens; SK-OV-3, Ovarian Cancer; single dose of 10 μM; read-out: Cell Growth Percent
SNB-19 = experiment: NCI 60 cell line panel (SRB), SNB-19; assay type: cell-based; details: Homo sapiens; SNB-19, CNS Cancer; single dose of 10 μM; read-out: Cell Growth Percent
HCT-116 = experiment: NCI 60 cell line panel (SRB), HCT-116; assay type: cell-based; details: Homo sapiens; HCT-116, Colon Cancer; single dose of 10 μM; read-out: Cell Growth Percent

| Compound | activity at 10 µM (HCT-15) [%] | activity at 10 µM (RXF 393) [%] | activity at 10 µM (MOLT-4) [%] | activity at 10 µM (SNB-75) [%] | activity at 10 µM (NCI-H23) [%] | activity at 10 µM (M14) [%] | activity at 10 µM (MDA-MB-231/ATCC) [%] | activity at 10 µM (BT-549) [%] | activity at 10 µM (UO-31) [%] | activity at 10 µM (IGROV1) [%] | activity at 10 µM (CCRF-CEM) [%] | activity at 10 µM (SF-539) [%] | activity at 10 µM (SW-620) [%] | activity at 10 µM (HCC-2998) [%] | activity at 10 µM (LOX IMVI) [%] | activity at 10 µM (OVCAR-3) [%] | activity at 10 µM (KM12) [%] | activity at 10 µM (MALME-3M) [%] | activity at 10 µM (A549/ATCC) [%] | activity at 10 µM (SK-MEL-28) [%] | further results |
| --- | --- | --- | --- | --- | --- | --- | --- | --- | --- | --- | --- | --- | --- | --- | --- | --- | --- | --- | --- | --- | --- |
| Cc1cccc(NC(=O)Nc2ccc(Oc3ncnc4sc5c(c34)CCCC5)cc2)c1 [Compound 21b] | 74.9 | 79 | 58.1 | 51.9 | 72.4 | 68.2 | 81.9 | 71.9 | 59 | 89 | 70 | 59.3 | 103 | 104 | 77.3 | 63.5 | 37.3 | 104 | 66.5 | 91.6 | activity at 10 µM [1]: 18%; inhibition at 10 µM [1]: 82%; activity at 10 µM (TK-10): 72.5%; activity at 10 µM (SK-OV-3): 79.7%; activity at 10 µM (SNB-19): 72%; activity at 10 µM (HCT-116): 62.1% |
| COc1cccc(NC(=O)Nc2ccc(Oc3ncnc4sc5c(c34)CCCC5)cc2)c1 [Compound 21c] | 67.1 | 74 | 46.9 | 50.3 | 67.7 | 67.3 | 69.6 | 88.5 | 52.5 | 88.7 | 64.4 | 53 | 96.3 | 102 | 61.5 | 68.3 | 27.5 | 88.5 | 61.2 | 83.7 | activity at 10 µM [1]: 20.9%; inhibition at 10 µM [1]: 79.2%; activity at 10 µM (TK-10): 73.5%; activity at 10 µM (SK-OV-3): 78.2%; activity at 10 µM (SNB-19): 70.2%; activity at 10 µM (HCT-116): 55.8% |
| CCOC(=O)c1c(C)oc2ncnc(Nc3ccc(NC(=O)Nc4ccc(CC)cc4)cc3)c12 [Compound 15i] | 105 | 98.2 | 98.6 | 80.5 | 90.7 | 99.9 | 94.6 | 84.4 | 94.7 | 110 | 93.7 | 89 | 113 | 114 | 100 | 118 | 103 | 101 | 89.2 | 105 | melting point: 242 to 246 °C; activity at 10 µM (TK-10): 112%; activity at 10 µM (SK-OV-3): 88.2%; activity at 10 µM (SNB-19): 97.9%; activity at 10 µM (HCT-116): 78.7% |
| O=C(Nc1ccccc1)Nc1ccc(Oc2ncnc3sc4c(c23)CCCC4)cc1 [Compound 21a] | 49.2 | 72 | 54 | 45.6 | 66.4 | 56.5 | 66.2 | 63.8 | 55.2 | 87.2 | 64.9 | 44 | 92 | 89.6 | 69.5 | 74.9 | 46.4 | 84.2 | 67.8 | 86.6 | activity at 10 µM [1]: 35.7%; inhibition at 10 µM [1]: 64.3%; activity at 10 µM (TK-10): 86.1%; activity at 10 µM (SK-OV-3): 72.2%; activity at 10 µM (SNB-19): 63.1%; activity at 10 µM (HCT-116): 67.4% |
